pKi: −log10 of the molar value. Read-outs that look alike come from different tables or passages of the source.
Tests used:
[1] = molecular target: T1, human recombinant 5-HT2A receptor (Homo sapiens, UniProt P28223); experiment: Test Example 1-2: 5-HT2A receptor binding inhibition test ([3H]-Ketanserin; non-specific ligand Ketanserin)
T1 construct: expressed in transfected cells; host or cells: Jump-In HEK cells (membrane preparation)
Outline: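 Ki values were derived from dose-response inhibition of [3H]-ketanserin binding; nonspecific binding was set with 500 µmol/L ketanserin, and Kd was set for each membrane lot from Scatchard saturation plots. Incubation lasted 1.5 h at room temperature (25 °C). Bound radioligand was harvested on Tris-HCl (pH 7.4)-presoaked filters and counted.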

[2] = molecular target: T2, human recombinant 5-HT2C receptor (Homo sapiens, UniProt P28335); experiment: Test Example 2: 5-HT2C receptor binding inhibition test ([3H]-Mesulergine; non-specific ligand Serotonin HCl); settings: human serotonin 5-HT2C receptor binding activity
T2 construct: expressed in transfected cells; host or cells: Jump-In HEK cells (membrane preparation)
T2 sequence (P28335 33-458): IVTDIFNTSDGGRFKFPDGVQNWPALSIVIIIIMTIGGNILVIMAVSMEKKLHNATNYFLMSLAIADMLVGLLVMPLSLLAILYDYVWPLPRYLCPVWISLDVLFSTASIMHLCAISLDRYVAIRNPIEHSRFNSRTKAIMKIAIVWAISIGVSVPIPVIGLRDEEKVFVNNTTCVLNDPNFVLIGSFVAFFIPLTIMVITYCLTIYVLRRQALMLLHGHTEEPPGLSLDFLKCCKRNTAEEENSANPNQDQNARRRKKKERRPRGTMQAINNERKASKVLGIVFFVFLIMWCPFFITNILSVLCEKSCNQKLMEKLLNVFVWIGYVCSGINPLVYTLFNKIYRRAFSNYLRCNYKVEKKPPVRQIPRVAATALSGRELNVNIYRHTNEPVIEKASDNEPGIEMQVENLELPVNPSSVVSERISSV
Outline: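 Ki values come from dose-response curves of [3H]-mesulergine displacement from human 5-HT2C membranes after 2 h at 37°C, scored by scintillation counting of filter-bound radioactivity. Serotonin HCl (500 µmol/L) set non-specific binding; Kd per membrane lot was taken from Scatchard plots.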

[3] = [3H]-Ketanserin, non-specific binding with 500 µmol/L Ketanserin, room temperature (25°C), 1.5 hours, read-out: h 5-HT2A Ki

T1 sequence (P28223 whole entry): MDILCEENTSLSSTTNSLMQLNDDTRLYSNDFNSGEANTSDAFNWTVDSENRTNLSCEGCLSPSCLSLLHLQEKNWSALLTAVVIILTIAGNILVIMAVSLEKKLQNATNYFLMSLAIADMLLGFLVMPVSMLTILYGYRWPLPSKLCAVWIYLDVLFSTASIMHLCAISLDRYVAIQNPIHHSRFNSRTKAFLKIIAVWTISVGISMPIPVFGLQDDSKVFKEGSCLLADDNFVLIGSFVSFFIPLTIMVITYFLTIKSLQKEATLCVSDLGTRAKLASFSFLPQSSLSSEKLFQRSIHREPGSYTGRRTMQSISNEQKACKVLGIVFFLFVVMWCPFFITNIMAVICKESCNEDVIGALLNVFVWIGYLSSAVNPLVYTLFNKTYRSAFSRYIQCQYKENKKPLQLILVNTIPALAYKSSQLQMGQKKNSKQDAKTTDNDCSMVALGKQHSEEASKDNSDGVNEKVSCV

pKi [1, 3] | pKi [2] | SMILES | pKi [1]
9.07 | 8.12 | Cc1nc(C)c(-c2cc(Nc3ccc(OC(F)(F)F)cn3)ncc2OCCO)c(C)n1 [Compound I-295] | 
9.46 | 8.52 | Cn1ncc(Br)c1-c1cc(Nc2ncc(OC(F)(F)F)cn2)ncc1OCCO [Compound I-296] | 
8.68 | 8.36 | Cc1nc(C)c(-c2cc(Nc3ccc(C4(C(F)(F)F)CC4)cn3)ncc2OCCO)c(C)n1 [Compound I-297] | 
9.52 | 8.50 | Cc1nc(C)c(-c2cc(Nc3ccc(-c4ccccc4)cn3)ncc2OCCO)c(C)n1 [Compound I-298] | 
9.57 | 9.45 | Cn1ncc(Br)c1-c1cc(Nc2ncc(OC(F)F)cc2F)ncc1OCCO [Compound I-299] | 
8.88 | 8.14 | Cc1nc(C)c(-c2cc(Nc3ncc(OC(F)(F)F)cc3F)ncc2OCCO)c(C)n1 [Compound I-300] | 
9.72 | 8.86 | Cn1ncc(Br)c1-c1cc(Nc2ccc(OC(C)(F)F)cn2)ncc1OCCO [Compound I-301] | 
8.97 | 8.21 | Cc1nc(C)c(-c2cc(Nc3cc(OC(F)F)c(Cl)cn3)ncc2OCCO)c(C)n1 [Compound I-302] | 
9.42 | 9.56 | Cc1nc(C)c(-c2cc(Nc3ccc(-c4ccc(C(F)(F)F)cc4)cn3)ncc2OCCO)c(C)n1 [Compound I-303] | 
9.77 | 9.19 | Cn1ncc(Cl)c1-c1cc(Nc2ncc(OC(F)F)cc2F)ncc1OCCO [Compound I-304] | 
9.73 | 9.23 | Cn1ncc(Cl)c1-c1cc(Nc2ncc(OC(F)(F)F)cc2F)ncc1OCCO [Compound I-305] | 
8.90 | 8.25 | Cc1nc(C)c(-c2cc(Nc3ncc(C(F)(F)F)cc3F)ncc2OCCO)c(C)n1 [Compound I-306] | 
9.66 | 9.15 | Cn1ncc(Br)c1-c1cc(Nc2ccc(OCC(F)(F)F)cn2)ncc1OCCO [Compound I-307] | 
9.24 | 8.02 | Cc1nc(C)c(-c2cc(Nc3ccc(Oc4ccc(F)cc4)cn3)ncc2OCCO)c(C)n1 [Compound I-308] | 
9.61 | 8.86 | Cc1nc(C)c(-c2cc(Nc3ccc(-c4ccc(F)cc4)cn3)ncc2OCCO)c(C)n1 [Compound I-309] | 
9.71 | 9.22 | Cc1nc(C)c(-c2cc(Nc3ccc(-c4ccc(Cl)cc4)cn3)ncc2OCCO)c(C)n1 [Compound I-310] | 
9.36 | 8.19 | Cn1ncc(Cl)c1-c1cc(Nc2ncc(C(F)(F)F)cn2)ncc1OCCO [Compound I-311] | 
9.60 | 8.32 | Cn1ncc(Cl)c1-c1cc(Nc2ncc(OC(F)(F)F)cn2)ncc1OCCO [Compound I-312] | 
9.70 | 8.86 | Cn1ncc(Cl)c1-c1cc(Nc2ccc(OCC(F)(F)F)cn2)ncc1OCCO [Compound I-313] | 

More lines, now with the values behind:

SMILES | pKi [1, 3] | pKi [2] | pKi [1]
COCc1nc(C)c(-c2cc(Nc3ncc(-c4cccc(C(F)F)c4)cc3Cl)ncc2OCCO)c(C)n1 [Compound I-262] | 9.25 | 9.27 | 
COCc1nc(C)c(-c2cc(Nc3ncc(-c4ccc(Cl)cc4F)cc3Cl)ncc2OCCO)c(C)n1 [Compound I-263] | 9.24 | 9.50 | 
COCc1ccc(-c2cnc(Nc3cc(-c4c(C)nc(COC)nc4C)c(OCCO)cn3)c(Cl)c2)cc1 [Compound I-264] | 9.12 | 9.15 | 
COCc1nc(C)c(-c2cc(Nc3ncc(-c4ccc(C#N)c(F)c4)cc3Cl)ncc2OCCO)c(C)n1 [Compound I-265] | 9.01 | 9.33 | 
COCc1nc(C)c(-c2cc(Nc3ncc(OC(C)(F)F)cc3Cl)ncc2OCCO)c(C)n1 [Compound I-266] | 8.73 | 8.65 | 
Cc1nc(C)c(-c2nc(Nc3ccc(OC(F)F)cc3)c(F)cc2OCCO)c(C)n1 [Compound I-268] | 9.02 | 9.23 | 
Cn1ncc(Br)c1-c1cc(Nc2ncc(OC(F)(F)F)cn2)cnc1OCCO [Compound I-269] | 9.53 | 8.55 | 
Cc1nc(C)c(-c2cc(Nc3ncc(OC(F)(F)F)cc3Cl)ncc2OCCO)c(C)n1 [Compound I-270] | 9.03 | 8.56 | 
COCc1nc(C)c(-c2cc(Nc3ccc(-c4ccc(F)cc4)cn3)ncc2OCCO)c(C)n1 [Compound I-272] | 9.46 | 8.85 | 
COCc1nc(C)c(-c2cc(Nc3ccc(-c4ccc(Cl)cc4)cn3)ncc2OCCO)c(C)n1 [Compound I-273] | 9.51 | 9.40 | 
Cn1ncc(Br)c1-c1cc(Nc2ncc(Cl)cn2)ncc1OCCO [Compound I-274] | 9.66 | 8.35 | 
Cn1ncc(Br)c1-c1cc(Nc2cc(C(F)(F)F)c(Cl)cn2)ncc1OCCO [Compound I-275] | 9.56 | 9.14 | 
Cn1ncc(Br)c1-c1nc(Nc2ccc(C(F)(F)F)cc2)c(F)cc1OCCO [Compound I-276] | 9.87 | 9.57 | 
Cn1ncc(Br)c1-c1cc(Nc2ccc(OC(F)(F)F)cn2)ncc1OCCO [Compound I-277] |  | 9.66 | 9.73
Cn1ncc(Br)c1-c1nc(Nc2ccc(Cl)cn2)c(F)cc1OCCO [Compound I-278] | 9.69 | 8.45 | 
Cn1ncc(Br)c1-c1nc(Nc2ccc(C(F)(F)F)cn2)c(F)cc1OCCO [Compound I-279] | 9.51 | 8.71 | 

SMILES | pKi [1, 3] | pKi [2] | pKi [1]
Cn1ncc(Br)c1-c1nc(Nc2ccc(OC(F)(F)F)cn2)c(F)cc1OCCO [Compound I-280] | 9.51 | 8.80 | 
Cn1ncc(Br)c1-c1cc(Nc2ncc(C3CC3)cn2)ncc1OCCO [Compound I-281] | 9.18 | 8.18 | 
Cc1cnn(C)c1-c1nc(Nc2ccc(Cl)cc2F)c(F)cc1OCCO [Compound I-282] | 9.65 | 8.21 | 
Cc1cnn(C)c1-c1nc(Nc2ccc(C(F)(F)F)cc2)c(F)cc1OCCO [Compound I-283] | 9.57 | 8.62 | 
Cn1ncc(Br)c1-c1cc(Nc2ccc(Cl)cn2)ncc1OCCO [Compound I-284] | 9.52 | 8.68 | 
Cn1ncc(Br)c1-c1cc(Nc2nc3ccccc3s2)ncc1OCCO [Compound I-285] | 9.52 | 8.11 | 
Cn1ncc(Br)c1-c1cc(Nc2ncc(OC(F)F)cn2)ncc1OCCO [Compound I-286] | 9.22 | 8.49 | 
Cn1ncc(Br)c1-c1cc(Nc2ncc(OC(F)(F)F)cc2F)ncc1OCCO [Compound I-287] | 9.55 | 9.58 | 
Cn1ncc(Br)c1-c1cc(Nc2ccc(OC(F)F)cn2)ncc1OCCO [Compound I-288] | 9.41 | 9.11 | 
Cn1ncc(Br)c1-c1nc(Nc2cnc(C(F)(F)F)nc2)c(F)cc1OCCO [Compound I-289] | 9.10 | 7.22 | 
Cn1ncc(Br)c1-c1nc(Nc2ccc(C(F)(F)F)nc2)c(F)cc1OCCO [Compound I-290] | 9.36 | 7.75 | 
Cn1ncc(Br)c1-c1cc(Nc2nc3ccccc3o2)ncc1OCCO [Compound I-291] | 9.37 | 7.79 | 
Cc1cnn(C)c1-c1cc(Nc2ncc(OC(F)(F)F)cc2F)ncc1OCCO [Compound I-292] | 9.41 | 8.62 | 
Cc1cnn(C)c1-c1cc(Nc2ccc(OC(F)(F)F)cn2)ncc1OCCO [Compound I-293] | 9.59 | 8.44 | 
Cn1ncc(Br)c1-c1nc(Nc2ccc(OC(F)F)cn2)c(F)cc1OCCO [Compound I-294] | 9.40 | 8.63 | 

Source: patent EP4631938A1, “NITROGEN-CONTAINING HETEROCYCLE WITH SEROTONIN RECEPTOR-BINDING ACTIVITY AND CARBOCYCLIC DERIVATIVE” (Shionogi & Co., Ltd, priority 2022, dated 2024)
